{
  "source": "patent US20250276955A1",
  "about": "“CORONAVIRUS MAIN PROTEASE INHIBITORS AND METHODS USING SAME” (Baylor College of Medicine, priority 2021, published 2025)",
  "key": {"[1]": {"target": "SARS-COV-2 M^pro (authentic N- and C-termini) (Severe acute respiratory syndrome coronavirus 2, UniProt P0DTD1)", "experiment": "biochemical", "format": "biochemical"}, "HepG2 cells [2]": {"test_system": "HepG2 cells", "experiment": "HepG2 cytotoxicity assay (XTT)", "conditions": "100 μM"}, "[3]": {"test_system": "SARS-COV-2 (USA_WA1/2020 isolate) in VERO E6 cells", "experiment": "Real-Time Cell Analysis (RTCA) assay of SARS-COV-2 replication", "format": "cell-based"}, "[4]": {"target": "SARS-CoV-2 main protease (M^pro) (Severe acute respiratory syndrome coronavirus 2, UniProt P0DTD1)", "experiment": "Protein thermal shift stability assay (SYPRO Orange)", "format": "binding"}, "SARS-COV-2 M^pro-His6": {"target": "SARS-COV-2 M^pro-His6 (Severe acute respiratory syndrome coronavirus 2, UniProt P0DTD1)", "experiment": "biochemical", "format": "biochemical", "conditions": "25 nM enzyme, 15 μM fluorescent peptide, Morrison equation; Inactive = less than 50% inhibition at 25 μM compound; read-out: M^pro-His Ki"}, "[5]": {"experiment": "Metabolic stability in human liver microsomes", "format": "in vitro ADME", "method": "(§1) The samples were collected at specific time-points 0, 30, and 60 min in duplicate. The reactions were terminated by adding an equivalent volume of ice-cold methanol and vortexed. […] Three μL of the supernatant was analyzed by UHPLC-Q Exactive Orbitrap MS (Thermo Fisher Scientific, USA) equipped with 50 mm×4.6 mm column (XDB C-18, Agilent Technologies, USA). The column temperature was maintained at 40° C. The flow rate was at 0.3 mL/min with a 30% mobile phase (acetonitrile containing 0.1% formic acid). Q Exactive MS was operated in positive mode with electrospray ionization. Ultra-pure nitrogen was applied as the sheath (45 arbitrary unit), auxiliary (10 arbitrary unit), sweep (1.0 arbitrary unit) and the collision gas. […] MS data were acquired from 80 to 1,200 Da in profile mode."}, "[6]": {"experiment": "Plasma stability assay, mouse plasma", "format": "in vitro ADME", "conditions": "10 μM, 37° C., after 2 h incubation", "method": "(§2) Compound CDD-1713 and CDD-1976 were incubated in human and mouse plasma respectively at a concentration of 10 μM in duplicate (n=2) at 37° C. At time-points of 0, 30, 60 and 120 min, 15 μL of sample were taken out and the reactions terminated by adding 75 μL of ice-cold methanol. The reaction mixtures were then vortexed for 30 sec and centrifuged at rcf 15,000 for 15 min. Following centrifugation, 3 μL of the supernatant was analyzed using UHPLC-Q Exactive Orbitrap MS. The percentage of test compound remaining at the individual time points relative to the 0 min sample was then determined."}, "HepG2 cells [7]": {"test_system": "HepG2 cells", "experiment": "HepG2 cell uptake assay", "format": "in vitro ADME", "conditions": "10 μM, 2 hours", "method": "The HepG2 cells maintained in DMEM (containing 1 g/L glucose, 10% fetal bovine serum and 1% penicillin/streptomycin) were seeded in a 12-well plate (a final density of 5×10^5/well) for cell uptake assay and 96-well plate for cytotoxicity assay (a final density of 5×10^4/well). The plate was incubated at 37° C. for 24 h.\nThe cells in 12-well plate were treated with CDD-1713 or CDD-1976 (final concentration: 10 μM). The plate was incubated at 37° C. for another 2 hr. The medium in the plate was decanted and the cells were rinsed with 1 mL of 1×DPBS for three times. 0.5 mL of 0.25% Trypsin was added into each well and incubated for 3.5 min (at 37° C.). 1 mL of complete medium was added into each well to quench the reaction. After spinning at 350×g for 5 min, the cell pellet was reconstituted in MeOH/H2O (v/v 1/1) and CDD-1713 or CDD-1976 was extracted from 100 μL of the resulting mixture with 100 μL of ice-cold methanol. The mixtures were centrifuged at rcf 15,000 for 15 min. Three μL of the supernatant was analyzed by UHPLC-Q Exactive Orbitrap MS (Thermo Fisher Scientific, USA) equipped with 50 mm×4.6 mm column (XDB C-18, Agilent Technologies, USA). The column temperature was set at 40° C. Ultra-pure nitrogen was applied as the sheath (45 arbitrary unit), auxiliary (10 arbitrary unit), sweep (1.0 arbitrary unit) and the collision gas. […]"}, "[8]": {"experiment": "Metabolic stability in mouse liver microsomes", "format": "in vitro ADME", "conditions": "0.5 mg protein/mL, 2.0 μM compound, 1.0 mM NADPH", "method": "as §1"}, "[9]": {"experiment": "Plasma stability assay, human plasma", "format": "in vitro ADME", "conditions": "10 μM, 37° C., after 2 h incubation", "method": "as §2"}},
  "note": "Entries after “also recorded” stand apart in the source; their conditions may differ.",
  "data": [
    {"smiles": "CN(C)C(=O)COc1ccc(-c2cccc3[nH]ncc23)cc1C=O", "note": "[CDD-1976]", "values": [
      {"measurement": "M^pro inhibition (in words)", "setting": "[1]", "value": "better inhibition compared to CDD-1713"},
      {"measurement": "Ki", "setting": "[1]; 25 nM enzyme, 15 μM fluorescent peptide, Morrison equation, Inactive = less than 50% inhibition at 25 μM compound, read-out: M^pro Ki", "value": "42 ± 5", "unit": "nM"},
      {"measurement": "cytotoxicity in HepG2 cells (in words)", "setting": "HepG2 cells [2]", "value": "no obvious cytotoxicity"},
      {"measurement": "IC50", "setting": "[3]; Severe acute respiratory syndrome coronavirus 2, Vero C1008, 75 h, read-out: IC50, inhibition of SARS-COV-2 induced cell death (RTCA)", "value": 2500, "unit": "nM"},
      {"measurement": "prevention of SARS-COV-2 induced cell death (in words)", "setting": "[3]; VERO E6 cells, 75 h", "value": "reduced cell death in a dose-dependent manner"},
      {"measurement": "stabilization of M^pro in thermal shift assay (in words)", "setting": "[4]", "value": "stabilized; also recorded: concentration-dependent stabilization; also recorded: most pronounced temperature shift"},
      {"measurement": "Ki", "setting": "SARS-COV-2 M^pro-His6", "value": "37 ± 4", "unit": "nM"},
      {"measurement": "HLM t1/2 (half-life)", "setting": "[5]; 0.5 mg protein/mL, 2.0 μM compound, 1.0 mM NADPH", "value": 41.4},
      {"measurement": "metabolic stability in human liver microsomes (in words)", "setting": "[5]; human, microsomes", "value": "more stable"},
      {"measurement": "compound remaining in mouse plasma", "setting": "[6]", "value": 80, "unit": "%"},
      {"measurement": "cell permeability in HepG2 uptake assay (in words)", "setting": "HepG2 cells [7]", "value": "moderate cell permeability"},
      {"measurement": "MLM t1/2 (half-life)", "setting": "[8]", "value": 10.2},
      {"measurement": "compound remaining in human plasma", "setting": "[9]", "value": 80, "unit": "%"}
    ]}
  ]
}
